Patent publication US8637050B2, “Peptide vaccines against group A streptococci” (The United States of America, as represented by the …, priority 2001, dated 2014)
No end group written: not given here.

How the values were obtained:
GAS M type M3 = assay: Opsonophagocytosis / bactericidal activity in vitro, GAS M type M3; format: cell-based, Group A streptococci; conditions: for reduction of M3 type bacteria: in vitro versus control; for % CFU reduction: in vitro, GAS M type M3
Protocol: (§1) Opsonophagocytosis assays were performed as previously described in Lancefield, R. C., Persistence of type-specific antibodies in man following infection with group A streptococci, 1959, J. Immunol., 89:307. Briefly, diluted serum (50 μl) was added to mid-log phase GAS (10^3 CFU) in Todd-Hewitt broth (50 μl) and whole, heparinized blood (500 μl) from a nonopsonic human donor. Mixtures were briefly vortexed and placed at 37° C. in a shaker for 3 hours. Dilutions were then plated on trypticase soy agar plates (5% sheep blood) to quantitate viable organisms. The % killing is expressed as [(CFU control-CFU test)/CFU control]×100.
(§2) Some of the peptides tested in the previous examples were tested for cross-type protection using the methods described above. […] The peptide tested and serotype against which it was tested is indicated.

[1] = test system: rabbit sera prepared against whole M protein; assay: ELISA: peptide recognition by anti-M protein rabbit sera; format: binding; conditions: for immunoreactivity of peptide with anti-M protein rabbit sera (ELISA): rabbit sera against whole M protein of the respective serotype
Protocol: Overlapping peptides representing each M type were assessed for their immunogenicity using ELISA and dot-immunoblot.
(§3) Levels of anti-M protein antibodies in mouse sera were determined by an enzyme-linked immunosorbent assay (ELISA) using either synthetic peptides or whole M protein as antigen. Microtiter plates (DYNEX Immulon 2 HB) were coated with 10 μg/ml antigen in 10 mM phosphate-buffered saline (PBS) at 4° C. overnight. Plates were rinsed three times with wash buffer (0.05% Tween 20 in 10 mM PBS, pH 7.2) and blocked with 1% BSA in PBS for one hour at 37° C. The appropriate test sera were applied at a starting dilution of 1:1000 and serially diluted two fold down the plate in PBS. Plates were incubated at 37° C. for 30 minutes and subsequently rinsed three times. Goat anti-rabbit or goat anti-mouse Ig-peroxidase conjugate diluted 1:10,000 in PBS was added to all wells and incubated for two hours at 37° C. Plates were rinsed three times with wash buffer and freshly prepared TMB peroxidase (Kirkegaard and Perry Laboratories) was added. Reactions were quenched with 0.18 M H2SO4 after 30 minutes at room temperature and OD450 was measured with a Labsystems Multiskan plate reader using Ascent software. ELISA titers are expressed as the reciprocal of the last dilution which gave a reading OD450>0.10.
The immunoreactivity of several synthetic peptides was determined by ELISA using rabbit sera prepared against whole M protein. The synthetic peptides are representative of relatively small portions of the M protein N-terminus; therefore, it was advantageous to determine if the epitopes contained within particular peptides were immunoreactive with sera prepared against whole M protein. It was shown that the whole anti-M protein rabbit sera of the respective serotypes could bind to each of the synthetic peptides within that serotype. However, some peptides were more highly immunoreactive than others, thus being better suited for use in the animal studies.

streptococci (GAS) = assay: Nasopharyngeal colonization challenge in vaccinated mice; format: in vivo; conditions: vaccinated mice relative to alum-only control mice; nasal wash 24 hours after 10^4 CFU challenge
Protocol: (§4) Mice (6 week old female Swiss Webster, Harley-Sprague) were immunized subcutaneously (s.c.) with either the peptide in alum or alum alone for control groups. Peptides were rotated in the alum mixture for 2 hours at 4° C. and stored at 4° C. overnight prior to use.
(§5) Mice were challenged intranasally one week after the final booster injection was administered. Prior to being challenged, mice were anesthetized with a ketamine/xylazine mixture. Mice were then given 10^4-10^5 CFU (10 μl) of streptococci intranasally via a microliter pipette. They were sacrificed 24 hours after the challenge and the nasopharyngeal passages were washed with approximately 100 μl physiological saline which was collected and immediately placed on ice. Dilutions of the wash were then plated on trypticase soy agar plates (5% sheep blood) and incubated at 37° C. for 18 hours to quantitate viable organisms. Nasopharyngeal colonization in immunized mice was compared to non-immunized controls. Statistical analysis of the NP data was accomplished using the t-test and rank sum test.
Nasopharyngeal (NP) colonization challenge experiments were performed on mice vaccinated (s.c.) with either M3-1 or M3-2 peptide in alum in comparison to control animals which received alum only. The nasopharyngeal colonization challenge was performed by doing a nasal wash 24 hours after challenge. […]

GAS M type M43 = assay: Opsonophagocytosis / bactericidal activity in vitro, heterologous GAS M type M43; format: cell-based, Group A streptococci; conditions: for reduction of M43 type bacteria: in vitro versus control; for % CFU reduction: in vitro, heterologous GAS M type M43
Protocol: as §1, §2

GAS = assay: Opsonophagocytosis assay in vitro with sera of immunized mice; format: cell-based, Group A streptococci; conditions: human whole blood, 3 hours
Protocol: as §1
Each of the sera tested positive in the assay and was able to reduce the amount of viable bacteria relative to controls.

[2] = test system: anti-M protein antibodies in mouse sera; assay: ELISA of sera of mice immunized s.c. with peptide in alum (immunogenicity); format: in vivo, mice (Swiss Webster)
Protocol: as §3, §4

GAS M type M3 or M43 = assay: Reduction of colonization in mice, colonizing GAS M type M3 or M43; format: in vivo
Protocol: as §4, §5
Some of the peptides were tested for reduction of colonization of GAS in mice. […] The peptides were administered together but were not chemically combined in any way. […] Some of the mice were colonized by M3, and some of the mice were colonized by M43.

GAS M type M1 [3] = assay: Opsonophagocytosis / bactericidal activity in vitro, GAS M type M1; format: cell-based, Group A streptococci
Protocol: as §1, §2

GAS M type M1 [4] = assay: Reduction of colonization in mice, colonizing GAS M type M1; format: in vivo
GAS M type M12 = assay: Opsonophagocytosis / bactericidal activity in vitro, GAS M type M12; format: cell-based, Group A streptococci
Protocol: as §1, §2

Sequence: CDARSVNGEFPRHVKLKNEIE [Peptide M3-1]
- reduction of M3 type bacteria (GAS M type M3): significantly reduce
- % CFU reduction (GAS M type M3): 70-90%
- immunoreactivity by ELISA using rabbit sera prepared against whole M protein [1]: confirmed
- Reduction of colonization (streptococci (GAS)): 87%
- reduction of M43 type bacteria (GAS M type M43): significantly reduce
- % CFU reduction (GAS M type M43): 80-90%
- Opsono (in vitro) (GAS): opsonophagocytize bacteria more effectively and yes
- ELISA (elicitation of antibodies) [2]: yes

Sequence: CGEFPRHVKLKNEIENLLDQV [Peptide M3-2]
- reduction of M3 type bacteria (GAS M type M3): significantly reduce
- % CFU reduction (GAS M type M3): 90-95%
- immunoreactivity of peptide with anti-M protein rabbit sera (ELISA) [1]: highest reactivity
- Reduction of colonization (streptococci (GAS)): 67%
- cross-type protection in vivo (GAS M type M3 or M43; mice colonized by M3 or M43): capable in vivo of cross-type protection
- % CFU reduction (GAS M type M3 or M43; mice, colonizing GAS M type M3 or M43, reduction overall): 67% (P < 0.30)
- reduction of M43 type bacteria (GAS M type M43): significantly reduce
- % CFU reduction (GAS M type M43): 60-80%
- Opsono (in vitro) (GAS): yes
- ELISA (elicitation of antibodies) [2]: yes

Sequence: CIRLRHENKDLKARLENAMEV [Peptide M1-3]
- immunoreactivity by ELISA using rabbit sera prepared against whole M protein [1]: confirmed
- % CFU reduction (GAS M type M1 [3]): 80-95%
- % CFU reduction (GAS M type M1 [4]): 90% (P < 0.10)
- Opsono (in vitro) (GAS): yes
- ELISA (elicitation of antibodies) [2]: yes

Sequence: CDHSDLVAEKQRLEDLGQKFE [Peptide M12-1]
- immunoreactivity of peptide with anti-M protein rabbit sera (ELISA) [1]: highest reactivity
- % CFU reduction (GAS M type M12): 70-80%
- Opsono (in vitro) (GAS): yes
- ELISA (elicitation of antibodies) [2]: yes
